Data published in patent US20120321656A1, “OLIGOPEPTIDES AND THEIR USE FOR TREATING INFECTIOUS DISEASES” (priority 2011, published 2012).

System: BALB/c female mouse
Test: Immune response to individual peptide: mouse immunization, then indirect solid-phase immunoenzymatic assay (ELISA) of serum antibodies to peptide
Type: in vivo
Settings: BALB/c mice, i.p. 100 μg peptide+Str-HRP with Freund's adjuvant; for Immunogenicity group: serum day 38, ELISA; for Overall ranking of antigenicity / Antigenicity compared to best ranking peptide (Average value calculated by removing outlier which exceeded 1 SD value) / Antigenicity compared to best ranking peptide (Median value): serum day 38, ELISA A450; for Antigenicity compared to best ranking peptide (Average value calculated by removing outlier which exceeded 1 SD value): average without outliers >1 SD

## S-D-P-A-W-K-R-N-D-P-M-V-Q-I-P-R-L (SDPAWKRNDPMVQIPRL; Mycobacterium Tuberculosis Synthetic Peptide) [SEQ ID 6, oligopeptide from MT Antigen 85 (Ag 85)]
  Immunogenicity group: relatively strong immunogenicity
  Overall ranking of antigenicity: 1
  Antigenicity compared to best ranking peptide (Average value calculated by removing outlier which exceeded 1 SD value): 1.0
  Antigenicity compared to best ranking peptide (Median value): 1.1

## S-R-Y-N-E-L-V-E-R-G-E-A [SEQ ID 2]
  Immunogenicity group: intermediate immunogenicity
  Overall ranking of antigenicity: 4
  Antigenicity compared to best ranking peptide (Average value calculated by removing outlier which exceeded 1 SD value): 10.6
  Antigenicity compared to best ranking peptide (Median value): 15.0

## G-D-N-I-P-A-K-F-L-E-G-T-L-R-T (GDNIPAKFLEGTLRT; Mycobacterium Tuberculosis Synthetic Peptide) [SEQ ID 7, oligopeptide from MT Antigen 85 (Ag 85)]
  Immunogenicity group: intermediate immunogenicity
  Overall ranking of antigenicity: 7
  Antigenicity compared to best ranking peptide (Average value calculated by removing outlier which exceeded 1 SD value): 11.6
  Antigenicity compared to best ranking peptide (Median value): 73.5

## V-Y-E-S-T-E-T-T-E-R-P-E-H-H-E-F-K-Q-A (VYESTETTERPEHHEFKQA; Mycobacterium Tuberculosis Synthetic Peptide) [SEQ ID 8, oligopeptide from MT Exported Repetitive Protein (Erp)]
  Immunogenicity group: relatively strong immunogenicity
  Overall ranking of antigenicity: 3
  Antigenicity compared to best ranking peptide (Average value calculated by removing outlier which exceeded 1 SD value): 4.6
  Antigenicity compared to best ranking peptide (Median value): 4.5

## T-D-S-E-R-A-W-V-S-R-G-A (TDSERAWVSRGA; Mycobacterium Tuberculosis Synthetic Peptide) [SEQ ID 10, oligopeptide from MT Cytotoxin/Hemolysin]
  Immunogenicity group: intermediate immunogenicity
  Overall ranking of antigenicity: 10
  Antigenicity compared to best ranking peptide (Average value calculated by removing outlier which exceeded 1 SD value): 27.6
  Antigenicity compared to best ranking peptide (Median value): 24.5

## L-R-A-Q-D-D-Y-N-G-W-D-I (LRAQDDYNGWDI; Mycobacterium Tuberculosis Synthetic Peptide) [SEQ ID 4, oligopeptide from MT Antigen 85 (Ag 85)]
  Immunogenicity group: relatively strong immunogenicity
  Overall ranking of antigenicity: 2
  Antigenicity compared to best ranking peptide (Average value calculated by removing outlier which exceeded 1 SD value): 1.4
  Antigenicity compared to best ranking peptide (Median value): 1.0

## N-E-L-G-A-S-Q-A-I-D-L-L-K-G-V (NELGASQAIDLLKGV; Mycobacterium Tuberculosis Synthetic Peptide) [SEQ ID 9, oligopeptide from MT Exported Repetitive Protein (Erp)]
  Immunogenicity group: intermediate immunogenicity
  Overall ranking of antigenicity: 5
  Antigenicity compared to best ranking peptide (Average value calculated by removing outlier which exceeded 1 SD value): 16.1
  Antigenicity compared to best ranking peptide (Median value): 22.3

## T-D-T-R-S-R-V-E-E-S-R-A-R-L [SEQ ID 1]
  Immunogenicity group: intermediate immunogenicity
  Overall ranking of antigenicity: 8
  Antigenicity compared to best ranking peptide (Average value calculated by removing outlier which exceeded 1 SD value): 44.5
  Antigenicity compared to best ranking peptide (Median value): 38.1

## T-Y-K-W-E-T-F-L-T-R-E-M-P-A (TYKWETFLTREMPA; Mycobacterium Tuberculosis Synthetic Peptide) [SEQ ID 5, oligopeptide from MT Antigen 85 (Ag 85)]
  Immunogenicity group: intermediate immunogenicity
  Overall ranking of antigenicity: 9
  Antigenicity compared to best ranking peptide (Average value calculated by removing outlier which exceeded 1 SD value): 21.8
  Antigenicity compared to best ranking peptide (Median value): 47.4

## A-G-R-R-C-L-D-A-G (AGRRCLDAG; Mycobacterium Tuberculosis Synthetic Peptide) [SEQ ID 11, oligopeptide from MT Cytotoxin/Hemolysin]
  Immunogenicity group: intermediate immunogenicity
  Overall ranking of antigenicity: 6
  Antigenicity compared to best ranking peptide (Average value calculated by removing outlier which exceeded 1 SD value): 16.5
  Antigenicity compared to best ranking peptide (Median value): 34.2

## S-M-G-R-D-I-K-V-Q-F-Q-G (SMGRDIKVQFQG; Mycobacterium Tuberculosis Synthetic Peptide) [SEQ ID 3, oligopeptide from MT Antigen 85 (Ag 85)]
  Immunogenicity group: intermediate immunogenicity
  Overall ranking of antigenicity: 11
  Antigenicity compared to best ranking peptide (Average value calculated by removing outlier which exceeded 1 SD value): 26.5
  Antigenicity compared to best ranking peptide (Median value): 35.8
